Experimental data reported in patent publication US12331033B2, “Inhibitors of SARM1” (Disarm Therapeutics, Inc., priority 2020, dated 2025).

Target: SARM1 (ARM-SAM-TIR) (Homo sapiens (Human), UniProt Q6SZW1)
Assay: ARM-SAM-TIR SARM1 IC50 assay (NADase activity, NAD+ cleavage, RapidFire MS)
Type: biochemical
Settings: ARM-SAM-TIR lysate 5 μg/mL, 2 h pre-incubation, 5 μM NAD+, 2 hr room temperature
Description: This Example describes an assay of ARM-SAM-TIR NADase activity and use of this assay to measure the efficacy of compounds of Formula I or Formula I′ to block SARM1 mediated NAD+ cleavage. This assay was optimized in such a way as to characterize the efficacy of the compounds in Formula I or Formula I′ to inhibit SARM1 activity and to calculate an IC50 value for each compound. This assay makes use of full length SARM1, which encompasses the ARM, SAM and TIR domains.
NRK1-HEK293T cells were seeded onto 150 cm^2 plates at 20×10^6 cells per plate. The next day, the cells were transfected with 15 μg ARM-SAM-TIR expression plasmid, SEQ ID NO: 1.
The cultures were supplemented with 1 mM NR at time of transfection to minimize toxicity from ARM-SAM-TIR overexpression. Forty-eight hours after transfection, cells were harvested, pelleted by centrifugation at 1,000 rpm (Sorvall ST 16R centrifuge, Thermo Fisher), and washed once with cold PBS (0.01 M phosphate buffered saline NaCl 0.138 M; KCl 0.0027 M; pH 7.4). The cells were resuspended in PBS with protease inhibitors (cOmplete™ protease inhibitor cocktail, Roche product #11873580001) and cell lysates were prepared by sonication (Branson Sonifer 450, output=3, 20 episodes of stroke). The lysates were centrifuged (12,000×g for 10 min at 4° C.) to remove cell debris and the supernatants (containing ARM-SAM-TIR protein) were stored at −80° C. for later use in the in vitro ARM-SAM-TIR NADase assay (see below). Protein concentration was determined by the Bicinchoninic (BCA) method and used to normalize lysate concentrations.
The enzymatic assay was performed in a 384-well polypropylene plate in Dulbecco's PBS buffer in a final assay volume of 20 μL. ARM-SAM-TIR lysate with a final concentration of 5 μg/mL was pre-incubated with the respective compound at 1% DMSO final assay concentration over 2 h at room temperature. The reaction was initiated by addition of 5 μM final assay concentration of NAD+ as substrate. After a 2 hr room temperature incubation, the reaction was terminated with 40 μL of stop solution of 7.5% trichloroactetic acid in acetonitrile. The NAD+ and ADPR concentrations were analyzed by a RapidFire High Throughput Mass Spectrometry System (Agilent Technologies, Santa Clara, Calif.) using an API4000 triple quadrupole mass spectrometer (AB Sciex Framingham, Mass.).

Chain of SARM1 (ARM-SAM-TIR) (Q6SZW1 other isoform, or with tags, fused parts or gaps): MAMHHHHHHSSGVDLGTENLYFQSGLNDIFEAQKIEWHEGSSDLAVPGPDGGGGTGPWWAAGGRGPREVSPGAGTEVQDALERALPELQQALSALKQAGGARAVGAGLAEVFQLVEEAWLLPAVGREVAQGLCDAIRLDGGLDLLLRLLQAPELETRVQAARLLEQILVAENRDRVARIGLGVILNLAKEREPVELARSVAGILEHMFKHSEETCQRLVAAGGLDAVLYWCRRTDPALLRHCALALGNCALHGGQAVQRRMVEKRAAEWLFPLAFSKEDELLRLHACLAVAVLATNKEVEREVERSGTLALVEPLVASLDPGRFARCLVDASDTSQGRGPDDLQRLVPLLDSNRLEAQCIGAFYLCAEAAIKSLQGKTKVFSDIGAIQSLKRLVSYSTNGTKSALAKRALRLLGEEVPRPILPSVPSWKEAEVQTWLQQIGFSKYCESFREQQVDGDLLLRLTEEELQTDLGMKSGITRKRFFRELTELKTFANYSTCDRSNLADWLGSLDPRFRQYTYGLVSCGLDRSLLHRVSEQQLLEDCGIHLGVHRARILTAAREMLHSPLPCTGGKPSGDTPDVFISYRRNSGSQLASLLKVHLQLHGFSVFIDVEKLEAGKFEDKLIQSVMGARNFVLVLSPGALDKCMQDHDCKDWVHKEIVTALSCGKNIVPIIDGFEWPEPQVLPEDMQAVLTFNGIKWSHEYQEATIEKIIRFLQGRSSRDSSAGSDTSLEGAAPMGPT

Row | SMILES | IC50 [µM]
1 | N[C@@H](Cc1ccc(Cl)cc1)C(=O)Nc1cc(-c2ccncc2)n[nH]1 [Example 3] | < 5
2 | O=C(CCc1ccccc1Cl)Nc1nnc(-c2ccncc2)[nH]1 [Example 138] | < 5
3 | O=C(CC1CCNc2ccccc21)Nc1nnc(-c2ccncc2)[nH]1 (stereo not shown) [Example 63] | > 30
4 | [2H]C([2H])(C(=O)Nc1nnc(-c2ccnnc2)[nH]1)C([2H])([2H])c1ccc(Cl)nc1 [Example 191] | < 5
5 | Cc1c(-c2ccncc2)n[nH]c1NC(=O)CCc1cnc(Cl)c(F)c1 [Example 151] | < 5
6 | O=C(CN1C(=O)COc2cc(Cl)ccc21)Nc1cc(-c2ccncc2)n[nH]1 [Example 38] | > 30
7 | O=C(CCCc1ccccc1)Nc1nnc(-c2ccncc2)[nH]1 [Example 142] | 5 to 15
8 | Cc1c(-c2ccncc2)n[nH]c1NC(=O)CCc1ccc(C(F)(F)F)nc1 [Example 261] | < 5
9 | O=C(CCc1ccc(Cl)c(F)c1)Nc1nnc(-c2ccnnc2)[nH]1 [Example 13] | < 5
10 | O=C(C[C@H]1CCOc2nc(Cl)ccc21)Nc1nnc(-c2ccncc2)[nH]1 [Example 232] | < 5
11 | O=C(C[C@@H]1CCOc2cc(Cl)ccc21)Nc1cc(-c2ccncc2)n[nH]1 [Example 213] | < 5
12 | O=C(CCc1ccc(Cl)nc1)Nc1[nH]nc(-c2ccnnc2)c1C1CCC1 [Example 265] | < 5
13 | Cc1c(-c2ccncc2)n[nH]c1NC(=O)c1ccc(OCC2CC2)cc1 [Example 252] | 5 to 15
14 | O=C(Nc1nnc(-c2ccncc2)[nH]1)NC1CCOc2nc(Cl)ccc21 (stereo not shown) [Example 184] | 5 to 15
15 | N#Cc1ccc(CCC(=O)Nc2cc(-c3ccncc3)n[nH]2)cc1 [Example 47] | < 5
16 | O=C(CCc1ccc(O)cc1)Nc1nnc(-c2ccncc2)[nH]1 [Example 74] | > 30
17 | O=C(CCc1ccc(Cl)nc1)Nc1cc(-c2cccnc2)n[nH]1 [Example 267] | 5 to 15
18 | Cc1c(-c2ccncc2)n[nH]c1NC(=O)/C=C/c1c(F)cccc1F [Example 247] | 5 to 15
19 | Cc1cccc(CCC(=O)Nc2nnc(-c3ccncc3)[nH]2)c1 [Example 140] | < 5
20 | O=C(CCc1c(F)c(F)c(F)c(F)c1F)Nc1nnc(-c2ccncc2)[nH]1 [Example 118] | < 5
21 | N#Cc1cc(Cl)ccc1CCC(=O)Nc1nnc(-c2ccncc2)[nH]1 [Example 50] | < 5
22 | O=C(CN1CCOc2cc(Cl)ccc21)Nc1nnc(-c2ccncc2)[nH]1 [Example 48] | < 5
23 | Cn1ccnc1CCC(=O)Nc1nnc(-c2ccncc2)[nH]1 [Example 128] | > 30
24 | O=C(Cc1coc2cc(Cl)ccc12)Nc1nnc(-c2ccncc2)[nH]1 [Example 295] | < 5
25 | CC1(c2c(-c3ccnnc3)n[nH]c2NC(=O)CCc2ccc(Cl)nc2)CC1 [Example 321] | < 5
26 | O=C(CCc1ccc(Cl)s1)Nc1nc(-c2ccncc2)c[nH]1 [Example 159] | < 5

Row | SMILES | IC50 [µM]
27 | O=C(CCc1ccc(Cl)cc1)Nc1cc(-c2ccncn2)n[nH]1 [Example 26] | < 5
28 | Cc1c(-c2ccncc2)n[nH]c1NC(=O)CS(=O)(=O)c1ccc(Cl)cc1 [Example 293] | < 5
29 | Cc1c(-c2ccncc2)n[nH]c1NC(=O)C[C@H]1CCOc2cc(Cl)ccc21 [Example 214] | < 5
30 | Cc1c(-c2ccncc2)n[nH]c1NC(=O)[C@H](O)Cc1ccc(Cl)cc1 [Example 289] | < 5
31 | O=C(CCc1ccc(Cl)nc1)Nc1cc(-c2ccncc2)[nH]n1 [Example 55] | < 5
32 | O=C(CCc1cccc(F)c1)Nc1nnc(-c2ccncc2)[nH]1 [Example 15] | < 5
33 | Clc1ccc(OCCNc2nnc(-c3ccncc3)[nH]2)cc1 [Example 28] | > 30
34 | CN(C(=O)CCc1ccccc1)c1nnc(-c2ccncc2)[nH]1 [Example 98] | 5 to 15
35 | O=C(Nc1cc(-c2ccncc2)n[nH]1)[C@H]1C[C@H](c2ccc(Cl)cc2)C1 [Example 181] | < 5
36 | O=C(CCc1ccc(Cl)cc1)Nc1[nH]nc(-c2ccnnc2)c1C1CCC1 [Example 264] | < 5
37 | NC(Cc1ccc(Cl)c(F)c1)C(=O)Nc1cc(-c2ccncc2)n[nH]1 (stereo not shown) [Example 175] | < 5
38 | N#Cc1c(-c2ccncc2F)n[nH]c1NC(=O)CCc1ccc(Cl)nc1 [Example 281] | < 5
39 | O=C(CCc1ccc(Cl)cc1)Nc1nc(-c2ccncc2)c[nH]1 [Example 20] | < 5
40 | O=C(CC1CCOc2cc(Cl)ccc21)Nc1cc(-c2ccnnc2)n[nH]1 (stereo not shown) [Example 192] | < 5
41 | COCc1c(-c2ccncc2)n[nH]c1NC(=O)CCc1ccc(Cl)nc1 [Example 297] | < 5
42 | O=C(Nc1nc(-c2ccncc2)n[nH]1)c1ccccc1 [Example 135] | 5 to 15
43 | O=C(C[C@H]1CCOc2cc(Cl)ccc21)Nc1cc(-c2ccncc2)n[nH]1 [Example 212] | < 5
44 | O=C(Nc1nnc(-c2ccncc2)[nH]1)C1Cc2ccccc2C1 [Example 116] | 5 to 15
45 | O=C(C[C@H]1CCOc2cc(Cl)ccc21)Nc1cc(-c2ccnnc2)n[nH]1 [Example 206] | < 5
46 | Cc1c(-c2ccncc2)n[nH]c1NC(=O)c1ccc(OC2CCC2)cc1 [Example 255] | 5 to 15
47 | Cc1c(-c2ccncc2)n[nH]c1NC(=O)CCc1ccc(F)c(F)c1 [Example 268] | < 5
48 | O=C(CCc1ccc(Cl)cc1)Nc1ncc(-c2ccncc2)s1 [Example 99] | 5 to 15
49 | O=C(CCc1ccc(Cl)cc1)Nc1cc(-c2ccnnc2)[nH]n1 [Example 40] | < 5
50 | Cc1ccccc1CCC(=O)Nc1nnc(-c2ccncc2)[nH]1 [Example 141] | < 5
51 | CCc1c(-c2ccncc2)n[nH]c1NC(=O)CCc1ccc(Cl)nc1 [Example 219] | < 5
52 | Cc1c(-c2ccncc2)n[nH]c1NC(=O)CCc1ccc(F)nc1 [Example 153] | < 5

Row | SMILES | IC50 [µM]
53 | O=C(CN1CCCc2ccccc21)Nc1nnc(-c2ccncc2)[nH]1 [Example 76] | > 30
54 | O=C(CCc1ccc(Cl)nc1)Nc1nc(-c2ccncc2)c[nH]1 [Example 1] | < 5
55 | Cc1ccc(CCC(=O)Nc2nnc(-c3ccncc3)[nH]2)c(C)c1 [Example 129] | < 5
56 | Cc1c(-c2ccncc2)nn(C)c1NC(=O)CCc1ccc(Cl)nc1 [Example 287] | < 5
57 | O=C(CC1OCCc2ccccc21)Nc1nnc(-c2ccncc2)[nH]1 (stereo not shown) [Example 58] | 5 to 15
58 | O=C(CCc1ccc(Cl)c(Cl)c1)Nc1nnc(-c2ccncc2)[nH]1 [Example 101] | < 5
59 | Cc1c(-c2ccncc2)n[nH]c1NC(=O)[C@H]1C[C@H](c2ccc(Cl)nc2)C1 [Example 237] | < 5
60 | O=C(Nc1nnc(-c2ccncc2)[nH]1)N1CCc2cc(Cl)ncc2C1 [Example 296] | < 5
61 | Cc1c(-c2ccncc2)n[nH]c1NC(=O)N1CC(c2ccccc2)C1 [Example 216] | < 5
62 | O=C(CC1CCOc2ccccc21)Nc1nnc(-c2ccncc2)[nH]1 (stereo not shown) [Example 109] | < 5
63 | Cc1c(-c2ccncc2)n[nH]c1NC(=O)CCc1nc2ccccc2s1 [Example 245] | 5 to 15
64 | Cc1c(-c2ccncc2)n[nH]c1NC(=O)C(O)Cc1ccc(Cl)cc1 (stereo not shown) [Example 223] | < 5
65 | Cc1ccc(CCC(=O)Nc2[nH]nc(-c3ccncc3)c2C)cn1 [Example 306] | < 5
66 | O=C(Nc1nnc(-c2ccncc2)[nH]1)[C@H]1C[C@H](c2ccc(Cl)nc2)C1 [Example 280] | < 5
67 | O=C(CCc1ccc(Cl)cc1)Nc1nnc(-c2ccncn2)[nH]1 [Example 156] | < 5
68 | Cc1c(-c2ccncc2)n[nH]c1NC(=O)COc1ccc(Cl)cc1 [Example 269] | < 5
69 | Cc1c(-c2ccncc2)n[nH]c1NC(=O)CCc1ccc(C#N)cc1 [Example 262] | < 5
70 | Cc1c(-c2ccncc2)n[nH]c1NC(=O)CCc1ccc(C(F)(F)F)cc1 [Example 200] | < 5
71 | NS(=O)(=O)c1ccc(CCC(=O)Nc2nnc(-c3ccncc3)[nH]2)cc1 [Example 77] | 15 to 30
72 | O=C(Nc1nnc(-c2ccncc2)[nH]1)[C@H]1CCc2ccccc2C1 [Example 88] | < 5
73 | O=C(CCc1ccc(Cl)cc1)Nc1nnc(-c2ccncc2F)[nH]1 [Example 11] | < 5
74 | Cc1c(-c2ccncc2)n[nH]c1NC(=O)CCc1cc(F)cc(F)c1 [Example 222] | < 5
75 | O=C(C[C@H]1CCOc2cc(Cl)ncc21)Nc1nnc(-c2ccncc2)[nH]1 [Example 235] | 5 to 15
76 | Cc1cccc(CS(=O)(=O)Nc2[nH]nc(-c3ccncc3)c2C)c1 [Example 254] | 5 to 15
